# Where a SMILES comes first, the peptide text is derived from it. Bridges are numbered along the chain shown (N, C = ends). [ ]: non-standard residue; d: D form. Hyp = O=C(O)[C@@H]1C[C@@H](O)CN1; Cit = NC(=O)NCCC[C@H](N)C(=O)O; Pen = CC(C)(S)[C@H](N)C(=O)O; dDab = NCC[C@@H](N)C(=O)O; Dab = NCC[C@H](N)C(=O)O
# Assays:
# Assay type in all cases: cell-based
# [1] = tested on: human red blood cells (hRBC); conditions: red cells of human, 1 h, 200 μg/mL
# Method in brief: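 Percent hemolysis derived from OD540 of supernatants relative to full lysis by 2.5% Triton X-100 (PBS baseline). Washed fresh human erythrocytes (20% v/v) were exposed to 200 μg/mL peptide for 1 h at 37 °C with shaking.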
# [2] = tested on: Escherichia coli ATCC 25922; conditions: ATCC 25922
# Method in brief: (§1)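 MICs were determined by CLSI broth microdilution in cation-adjusted Mueller-Hinton II broth with about 5×10^5 CFU/mL inoculum. Peptides were tested in two-fold serial dilutions with 0.002% polysorbate 80 final. MIC in μg/mL is the lowest concentration with no visible growth after 18-20 h at 35 °C.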
# [3] = tested on: Klebsiella pneumoniae SSI3010; conditions: SSI3010
# Method in brief: as §1
# [4] = tested on: Escherichia coli MCR-1 Af 45; conditions: MCR-1 Af 45
# Method in brief: as §1
SMILES,Hemolysis at 0.2 g/L [1],Escherichia coli ATCC 25922 MIC [2],Klebsiella pneumoniae SSI3010 MIC [3],Escherichia coli MCR-1 Af45 MIC [4]
"CC[C@H](C)[C@H](NC(=O)[C@@H]1C[C@@H](O)CN1C(=O)[C@@H](N)C(C)C)C(=O)N[C@@H]1C(=O)N[C@@H](Cc2ccc(O)cc2)C(=O)N[C@@H](CCN)C(=O)N[C@@H](CC(N)=O)C(=O)N[C@@H](CCCNC(=N)N)C(=O)N[C@@H](CCN)C(=O)N[C@@H]([C@@H](C)O)C(=O)N[C@H](CCN)C(=O)N[C@@H](CCCCN)C(=O)N[C@@H](CO)C(=O)N[C@@H](CCN)C(=O)N[C@H](C(=O)N[C@@H](Cc2ccc(O)cc2)C(=O)O)CSSC1(C)C [Example 45, Val-Hyp-Ile-Pen-Tyr-Dab-Asn-Arg-Dab-Thr-^DDab-Lys-Ser-Dab-Cys-Tyr] (H-V[Hyp]I[Pen]Y[Dab]NR[Dab]T[dDab]KS[Dab]CY-OH; disulfide 4-15)",<1%,0.125 mg/L,0.0625 mg/L,0.125 mg/L
"CC[C@H](C)[C@H](NC(=O)[C@@H]1C[C@@H](O)CN1C(=O)[C@@H](N)C(C)C)C(=O)N[C@@H]1C(=O)N[C@@H](Cc2ccc(O)cc2)C(=O)N[C@@H](CO)C(=O)N[C@@H](CC(N)=O)C(=O)N[C@@H](CCCNC(=N)N)C(=O)N[C@@H](CCN)C(=O)N[C@@H]([C@@H](C)O)C(=O)N[C@H](CCN)C(=O)N[C@@H](CCCCN)C(=O)N[C@@H](C)C(=O)N[C@@H](CCN)C(=O)N[C@H](C(=O)N[C@@H](Cc2ccc(O)cc2)C(=O)O)CSSC1(C)C [Example 46, Val-Hyp-Ile-Pen-Tyr-Ser-Asn-Arg-Dab-Thr-^DDab-Lys-Ala-Dab-Cys-Tyr] (H-V[Hyp]I[Pen]YSNR[Dab]T[dDab]KA[Dab]CY-OH; disulfide 4-15)",<1%,0.5 mg/L,0.5 mg/L,0.25 mg/L
"CC[C@H](C)[C@H](NC(=O)[C@@H]1C[C@@H](O)CN1C(=O)[C@@H](N)C(C)C)C(=O)N[C@@H]1C(=O)N[C@@H](Cc2ccc(O)cc2)C(=O)N[C@@H](CO)C(=O)N[C@@H](CC(N)=O)C(=O)N[C@@H](CCCNC(=N)N)C(=O)N[C@@H](CCN)C(=O)N[C@@H]([C@@H](C)O)C(=O)N[C@H](CCN)C(=O)N[C@@H](CCCCN)C(=O)N[C@@H](CO)C(=O)N[C@@H](CCN)C(=O)N[C@H](C(=O)N[C@@H](Cc2ccc(O)cc2)C(=O)O)CSSC1(C)C [Example 47, Val-Hyp-Ile-Pen-Tyr-Ser-Asn-Arg-Dab-Thr-^DDab-Lys-Ser-Dab-Cys-Tyr] (H-V[Hyp]I[Pen]YSNR[Dab]T[dDab]KS[Dab]CY-OH; disulfide 4-15)",<1%,0.25 mg/L,0.5 mg/L,0.25 mg/L
"CC[C@H](C)[C@H](NC(=O)[C@@H]1C[C@@H](O)CN1C(=O)[C@@H](N)C(C)C)C(=O)N[C@@H]1C(=O)N[C@@H](Cc2ccc(O)cc2)C(=O)N[C@@H](CCN)C(=O)N[C@@H](CC(N)=O)C(=O)N[C@@H](CCCNC(=N)N)C(=O)N[C@@H](CCN)C(=O)N[C@@H]([C@@H](C)O)C(=O)N[C@H](CCN)C(=O)N[C@@H](CCCCN)C(=O)N[C@@H](CO)C(=O)N[C@@H](CO)C(=O)N[C@H](C(=O)N[C@@H](Cc2ccc(O)cc2)C(=O)O)CSSC1(C)C [Example 48, Val-Hyp-Ile-Pen-Tyr-Dab-Asn-Arg-Dab-Thr-^DDab-Lys-Ser-Ser-Cys-Tyr] (H-V[Hyp]I[Pen]Y[Dab]NR[Dab]T[dDab]KSSCY-OH; disulfide 4-15)",<1%,0.25 mg/L,0.5 mg/L,0.25 mg/L
"CC[C@H](C)[C@H](NC(=O)[C@@H]1C[C@@H](O)CN1C(=O)[C@@H](N)C(C)C)C(=O)N[C@@H]1C(=O)N[C@@H](Cc2ccc(O)cc2)C(=O)N[C@@H](CCN)C(=O)N[C@@H](CC(N)=O)C(=O)N[C@@H](CCCNC(=N)N)C(=O)N[C@@H](CCN)C(=O)N[C@@H]([C@@H](C)O)C(=O)N[C@H](CCN)C(=O)N[C@@H](CCCCN)C(=O)N[C@@H]([C@@H](C)O)C(=O)N[C@@H](CCCNC(N)=O)C(=O)N[C@H](C(=O)N[C@@H](Cc2ccc(O)cc2)C(=O)O)CSSC1(C)C [Example 49, Val-Hyp-Ile-Pen-Tyr-Dab-Asn-Arg-Dab-Thr-^DDab-Lys-Thr-Cit-Cys-Tyr] (H-V[Hyp]I[Pen]Y[Dab]NR[Dab]T[dDab]KT[Cit]CY-OH; disulfide 4-15)",<1%,0.25 mg/L,0.5 mg/L,0.25 mg/L
"CC[C@H](C)[C@@H]1NC(=O)[C@H]([C@@H](C)O)NC(=O)[C@H](CCCCN)NC(=O)[C@@H](CCN)NC(=O)[C@H]([C@@H](C)O)NC(=O)[C@H](CCN)NC(=O)[C@H](CCCNC(=N)N)NC(=O)[C@H](CC(N)=O)NC(=O)[C@H](CCN)NC(=O)[C@H](Cc2ccc(O)cc2)NC(=O)[C@@H](NC(=O)[C@@H](NC(=O)[C@@H]2C[C@@H](O)CN2C(=O)[C@@H](N)C(C)C)[C@@H](C)CC)C(C)(C)SSC[C@@H](C(=O)N[C@@H](Cc2ccc(O)cc2)C(=O)O)NC1=O [Example 50, Val-Hyp-Ile-Pen-Tyr-Dab-Asn-Arg-Dab-Thr-^DDab-Lys-Thr-Ile-Cys-Tyr] (H-V[Hyp]I[Pen]Y[Dab]NR[Dab]T[dDab]KTICY-OH; disulfide 4-15)",<1%,0.5 mg/L,1 mg/L,0.5 mg/L
"CC[C@H](C)[C@H](NC(=O)[C@@H]1C[C@@H](O)CN1C(=O)[C@@H](N)C(C)C)C(=O)N[C@@H]1C(=O)N[C@@H](Cc2ccc(O)cc2)C(=O)N[C@@H](CCN)C(=O)N[C@@H](CC(N)=O)C(=O)N[C@@H](CCCNC(=N)N)C(=O)N[C@@H](CCN)C(=O)N[C@@H]([C@@H](C)O)C(=O)N[C@H](CCN)C(=O)N[C@@H](CCCCN)C(=O)N[C@@H]([C@@H](C)O)C(=O)N[C@@H](CC(N)=O)C(=O)N[C@H](C(=O)N[C@@H](Cc2ccc(O)cc2)C(=O)O)CSSC1(C)C [Example 51, Val-Hyp-Ile-Pen-Tyr-Dab-Asn-Arg-Dab-Thr-^DDab-Lys-Thr-Asn-Cys-Tyr] (H-V[Hyp]I[Pen]Y[Dab]NR[Dab]T[dDab]KTNCY-OH; disulfide 4-15)",<1%,0.25 mg/L,0.5 mg/L,0.25 mg/L
"CC[C@H](C)[C@H](NC(=O)[C@@H]1C[C@@H](O)CN1C(=O)[C@@H](N)C(C)C)C(=O)N[C@@H]1C(=O)N[C@@H](Cc2ccc(O)cc2)C(=O)N[C@@H](CCN)C(=O)N[C@@H](CC(N)=O)C(=O)N[C@@H](CCCNC(=N)N)C(=O)N[C@@H](CCN)C(=O)N[C@@H]([C@@H](C)O)C(=O)N[C@H](CCN)C(=O)N[C@@H](CCCCN)C(=O)N[C@@H]([C@@H](C)O)C(=O)N[C@@H](CO)C(=O)N[C@H](C(=O)N[C@@H](Cc2ccc(O)cc2)C(=O)O)CSSC1(C)C [Example 52, Val-Hyp-Ile-Pen-Tyr-Dab-Asn-Arg-Dab-Thr-^DDab-Lys-Thr-Ser-Cys-Tyr] (H-V[Hyp]I[Pen]Y[Dab]NR[Dab]T[dDab]KTSCY-OH; disulfide 4-15)",<1%,0.25 mg/L,1 mg/L,0.25 mg/L
